Values quoted from earlier work as cited in patent publication KR20140130881A, “보리코나졸을 함유하는 안정한 주사용 조성물” (동아에스티 주식회사, priority 2013, dated 2014).
Values after ≈ are worked out from the molar mass of the structure shown.

C[C@@H](c1ncncc1F)[C@](O)(Cn1cncn1)c1ccc(F)cc1F [보리코나졸, (2R,3S)-2-(2,4-다이플루오로페닐)-3-(5-플루오로피리미딘-4-일)-1-(1H-1,2,4-트리아졸-1-일)부탄-2-올]
aqueous solubility (pH 3, acidic solution): 200 µg/mL (≈ 573 µM) | solubility in water (water): 700 µg/mL (≈ 2000 µM)
